Patent publication US9833466B2, “Treatment of leukemia with histone deacetylase inhibitors” (Acetylon Pharmaceuticals Inc., priority 2014, dated 2017)

Experiments:
Assay type in all cases: cell-based
[1] = tested on: AML cell lines (Kasumi-3, HL-60, and THP-1); assay: AML cell viability assay (Cell Titer Glo), HDAC inhibitor combined with azacitidine; settings: combination with azacitidine; 72 hours; synergistic only when CI<0.7
Procedure: With the same amount of cultured AML cells in each well, serial dilutions of one compound were added into each row of the wells from left to right, and serial dilutions of the second compound were mixed into each column of these wells from top to bottom. Therefore, those AML cells on the testing plate were exposed to various combinations of the two compounds at different concentrations. The viable cells in each well were measured after 72 hours incubation at 37° C., and the percentage of unviable cells was calculated and normalized to the total cells. […] The CI values were plotted as a function of Fa, as shown in FIGS. 1A-D. In order to avoid any possible false positives due to experimental data variability, a combination was determined “synergistic” only when CI<0.7, as shown in the shaded area of each graph. […] The synergism is driven predominantly by HDAC1/2 inhibition.

Kasumi-1 = Kasumi-1 cell cycle by propidium iodide staining (sub-G1); settings: 72 hours, increasing concentrations
Procedure: HDAC inhibition causing AML cell death (apoptosis) was measured by staining the AML cells with propidium iodide after the cells were exposed to different concentrations of the HDAC inhibitors. Four distinct cell populations, G1, S, G2, and sub-G1, were separated and quantified based on their propidium iodide staining patterns. The sub-G1 cells are those dying or dead cells, and the percentage of this population was a reflection of the tested compound cytotoxicity.

MV4-11 = assay: Cell cycle by flow cytometry (EdU, Far Red) in MV4-11; settings: single agent, 72 h
Procedure: The distribution of cells among G0/G1 phase, G2/M phase, S phase and subG1 phase was determined. […] The relative fraction of cells that were live, in early apoptosis, in late apoptosis, or dead was then determined.
FIG. 17. […] (A) Indicated AML cell lines were exposed to increasing concentrations of Compound J to confirm their sensitivity to HDAC1/2 inhibition. (B-D) MV4-11 cells were treated with indicated concentrations of compounds. (B) Surface levels of myeloid differentiation marker CD11b were determined by FACS at 72 h post-treatment. […] (C) Cell cycle was assessed by flow cytometry after incorporation of EdU and staining with Far Red at 72 h post-treatment. The distribution of cells among G0/G1 phase, G2/M phase, S phase and subG1 phase was determined. […] (D) Apoptosis was assessed by flow cytometry via measuring Annexin V binding and cellular permeability to propidium iodide at 96 h post-treatment. The relative fraction of cells that were live, in early apoptosis, in late apoptosis or dead was then determined.

[2] = tested on: HL-60, NB4, MV4-11, Kasumi-1, THP-1, and MOLM-13; assay: Single agent activity on viability in AML cell lines; settings: 72 hours, six AML cell lines
Procedure: FIGS. 3A-D show the single agent activity on viability in AML cell lines. Briefly, each of the following cell lines: HL-60, THP-1, MV-4-11, Kasumi-1, NB4, and MOLM-13 were exposed to increasing concentrations of either Compound B (FIG. 3A), Compound A (FIG. 3B), Compound E (FIG. 3C), or azacitidine (FIG. 3D) to determine their response to drug treatment. […] The panel of cell lines was also treated with azacitidine to measure their sensitivity.
FIGS. 8A-F show the single agent activity on viability in AML cell lines. […] Viability was calculated as a percentage of control (DMSO treated cells). Growth inhibition curves were generated using GraphPad Prism 6.
FIG. 17. […] (B-D) MV4-11 cells were treated with indicated concentrations of compounds. (B) Surface levels of myeloid differentiation marker CD11b were determined by FACS at 72 h post-treatment. […] (C) Cell cycle was assessed by flow cytometry after incorporation of EdU and staining with Far Red at 72 h post-treatment. The distribution of cells among G0/G1 phase, G2/M phase, S phase and subG1 phase was determined. […] (D) Apoptosis was assessed by flow cytometry via measuring Annexin V binding and cellular permeability to propidium iodide at 96 h post-treatment. The relative fraction of cells that were live, in early apoptosis, in late apoptosis or dead was then determined.

HL-60 cells = assay: HL-60 cell viability, combination with azacitidine (cell titer glo, CalcuSyn CI); settings: 72 hr, CI less than 1 = synergistic
Procedure: HL-60 cells were treated with increasing doses of azacitidine with Compound E (FIG. 11A) or with Compound A (FIG. 11B) or with Compound H (FIG. 11C) or with Compound C (FIG. 11D), and cell viability was assessed at 72 hr by cell titer glo assay. The combination index (CI) and relative fraction affected (Fa) was determined at each dose level using CalcuSyn software. […] Significant enhancement of azacitidine activity is observed in combination with HDAC1/2 inhibition.

AML1/ETO fusion protein = AML1/ETO fusion protein Western blot in Kasumi-1 cells; settings: 24 hours
Procedure: One type of AML has a signature chromosome translocation t(8:21) and therefore expression of a unique fusion protein AML1/ETO. […] In this study, Kasumi-1 cells were exposed to different concentrations of the HDAC inhibitor Compound A, or another HDAC1/2/6 selective inhibitor Compound G (data not shown), for 24 hours. The whole cell lysates were separated by SDS-PAGE (SDS-polyacrylamide gel electrophoresis) and transferred to a membrane (Western blot). The AML1/ETO fusion protein was detected on the membrane using an AML1 specific antibody.

[3] = tested on: bone marrow samples derived from AML patients; assay: Primary AML sample colony formation assay; settings: Homo sapiens, 336 h, read-out: median IC50, colony formation
Procedure: (A) 6 bone marrow samples derived from AML patients were cultured in methylcellulose-based medium and treated with increasing concentrations of Compound A, Compound J and azacitidine for 14 days when the colonies reach reasonable size. IC50 values for each drug are plotted. […] IC50 values were plotted for each patient sample.

NB4 = assay: Surface CD11b by FACS in NB4; settings: combination with azacitidine vs single agent, 72 hours
Procedure: Briefly, the AML cell lines HL-60 (FIGS. 4A and 4D), Kasumi-1 (FIGS. 4B and 4E) and NB4 (FIGS. 4C and 4F) were treated with the indicated concentrations of compounds. In FIGS. 4A-C, surface levels of myeloid differentiation marker CD11b were determined by FACS at 72 hours post-treatment. […] In FIGS. 4D-F, apoptosis was assessed by flow cytometry by measuring Annexin V binding and cellular permeability to propidium iodide at 96 hours post-treatment. The relative fraction of cells that were alive, in early apoptosis, in late apoptosis, or dead was then determined.
FIGS. 7A-F show the combination of HDAC inhibitors and azacitidine in the NB4 cell line. Briefly, cells were treated with DMSO, Compound B, Compound A, or Compound E as single agent or in combination with azacitidine at the indicated concentrations. Surface levels of CD11b were determined 72 hours post-treatment (FIGS. 7A, 7C, 7E), and apoptosis was assessed 96 hours post-treatment (FIGS. 7B, 7D, 7F).

Structure (SMILES) | synergy of cytotoxicity with azacitidine (CI vs Fa) [1] | sub-G1 cells (dying or dead cells) (Kasumi-1) | cell cycle arrest (MV4-11) | viability IC50 relative to HDAC selective range [2] | synergistic interaction with azacitidine on cell viability (CI) (HL-60 cells) | amount of AML1/ETO fusion protein (AML1/ETO fusion protein) | IC50 [3] [µM] | CD11b positive cells (NB4)
Nc1ccc(-c2cccs2)cc1NC(=O)c1ccc2c(c1)cc(C1CC1)n2CCN1CCOCC1 [Compound E, N-(2-amino-5-(thiophen-2-yl)phenyl)-2-cyclopropyl-1-(2-morpholinoethyl)-1H-indole-5-carboxamide] | the most synergy | Increased amount of sub-G1 cells | induced cell cycle arrest as well as apoptosis | within its HDAC1/2 selective range | strongest synergistic interaction | – | – | –
O=C(CCCCCCNC(=O)c1cnc(N(c2ccccc2)c2ccccc2)nc1)NO [Compound A, 2-(diphenylamino)-N-(7-(hydroxyamino)-7-oxoheptyl)pyrimidine-5-carboxamide] | significant synergistic cell killing | – | induced cell cycle arrest as well as apoptosis | has some inhibitory effects on HDAC1/2 at their IC50 values | – | decrease the amount of this fusion protein in a concentration dependent manner | 9.76 | synergistic increases of CD11b positive cells
O=C(CCCCCCNC(=O)c1cnc(N(c2ccccc2)c2ccccc2Cl)nc1)NO [Compound B, 2-((2-chlorophenyl)(phenyl)amino)-N-(7-(hydroxyamino)-7-oxoheptyl)pyrimidine-5-carboxamide] | – | Increased amount of sub-G1 cells | – | – | – | – | – | synergistic increases of CD11b positive cells
